Data reported in PMC5988692, “AZ304, a novel dual BRAF inhibitor, exerts anti-tumour effects in colorectal cancer independently of BRAF genetic status” (British Journal of Cancer, 2018).

Columns and labels:
p38 = p38 (Homo sapiens, UniProt Q16539); assay: 33P-ATP filter binding kinase assay (MBP phosphorylation); type: biochemical; settings: ATP Km
Protocol: (§1) For RAF kinases, detailed assay information was described in ref.[18] Briefly, the kinase activity of BRAF WT, BRAF V600E, or CRAF was measured using an AlphaScreen assay (Perkin Elmer, MA) monitoring MEK1/2 phosphorylation at Ser217/221. For CDK2 and CDK4 kinases, activity was also measured by AlphaScreen, monitoring phosphorylation of biotin Rb peptide at Ser780. Similarly, MAP3K7, CSF1R and JAK2 kinase activity was measured by phosphorylation of their biotinylated substrates MKK6 kinase dead protein at Ser271/Thr275, or tyrosine phosphorylation of pEY or Tyk2 Tyr1054/1055 peptides, respectively. CSK, IGF1R, EGFR, FGFR1 and SRC kinase activity was measured using a sandwich ELISA detecting phosphorylated poly EAY peptide with a HRP conjugated phosphotyrosine antibody and TMB substrate, while p38 kinase activity was measured by monitoring phosphorylation of MBP protein with radiolabeled ^33P-ATP in a filter binding format. All assays were screened under respective ATP Km conditions and inhibitor IC50s were derived from either 5 (RAF kinases, CDK2, CDK4, MAP3K7, JAK2), 10 (CSK, IGF1R, EGFR, FGFR1, SRC) or 11 (p38, CSF1R) point compound dose response.

A375 cells = assay: Western blot p-p38; type: cell-based, human; settings: A375 (BRAF V600E), 75 min
Protocol: For western-blotting in A375, A549 and MC-F7 cell lines, the detailed method was described in ref.[18] […] For western-blot in selected CRC cell lines, the cells were collected after treatment for indicated time and washed twice with cold PBS. Then cells were lysed in 1% Triton lysis buffer (50 mmol/L Tris-HCl, pH 7.4, 10 mmol/L EDTA, 100 mmol/L NaF, 150 mmol/L NaCl, 1% Triton X-100, 1 mmol/L PMSF 1 mmol/L Na3VO4 and 2 μg/mL aprotinin). After sonication and centrifugation, samples were quantified with the Lowry method. Next, all the protein samples were boiled at 95 °C for 5 min with 3× sampling buffer. After that, all the lysate samples were resolved by SDS polyacrylamide gel electrophoresis (SDS-PAGE) and followed by western blotting which means electronically transferred to nitrocellulose membranes. […] After washing for another four times, the protein bands were detected with enhanced chemiluminescence reagent (SuperSignal Western Pico Chemiluminescent Substrate; Pierce, Rockford, IL, USA) and visualised with the Electrophoresis Gel Imaging Analysis System (DNR Bio-Imaging Systems, Jerusalem, Israel).
Cells were incubated with DMSO or AZ304 for 75 min and p-ERK levels were determined using a p-ERK antibody based ELISA. […] Cells were incubated with DMSO or AZ304 (±EGF) for 75 min and p-ERK levels were determined using a p-ERK antibody based ELISA. […]

[1] = Xenograft study, animal health and body weight; type: in vivo; settings: RKO and Caco-2 xenograft mice, 10 days treatment
Protocol: All in vivo experiments were performed in accordance with Institutional Review Board of China Medical University guidelines. Female 4–6 weeks old athymic BALB/c nude mice were purchased from Shanghai SLAC Laboratory Animal Centre (Shanghai, China). RKO/Caco-2 cells (1 × 10^7) in 200 μl PBS were injected subcutaneously into the right scapular region of mice. […] Tumours were measured with a caliper every 2 days, so did body weights. Tumour volume was calculated using the formula V = 1/2 (width^2 × length). Mice were terminated by CO2 inhalation when the tumour diameters reached 1.5 cm, according to the protocol filed with the Guidance of Institutional Animal Care and Use Committee of China Medical University.
Supplementary Figure 2 Weights of xenografts from RKO and Caco-2 cells was measured every 2 days.

SRC = SRC (Homo sapiens, UniProt P12931); assay: Sandwich ELISA kinase assay; type: biochemical; settings: ATP Km
Protocol: as §1

CSK = CSK (Homo sapiens, UniProt P41240); assay: Sandwich ELISA kinase assay; type: biochemical; settings: ATP Km
Protocol: as §1

EGFR = EGFR (Homo sapiens, UniProt P00533); assay: Sandwich ELISA kinase assay; type: biochemical; settings: ATP Km
Protocol: as §1

IGF1R = IGF1R (Homo sapiens, UniProt P08069); assay: Sandwich ELISA kinase assay; type: biochemical; settings: ATP Km
Protocol: as §1

FGFR = FGFR (Homo sapiens, UniProt P11362); assay: Sandwich ELISA kinase assay; type: biochemical; settings: ATP Km
Protocol: as §1

CSF1R = CSF1R (Homo sapiens, UniProt P07333); assay: AlphaScreen kinase assay; type: biochemical; settings: ATP Km
Protocol: as §1

JAK2 = JAK2 (Homo sapiens, UniProt O60674); assay: AlphaScreen kinase assay; type: biochemical; settings: ATP Km
Protocol: as §1

MAP3K7 = MAP3K7 (Homo sapiens, UniProt O43318); assay: AlphaScreen kinase assay; type: biochemical; settings: ATP Km
Protocol: as §1

EGFR, sequence (P00533 25-1210, species assumed): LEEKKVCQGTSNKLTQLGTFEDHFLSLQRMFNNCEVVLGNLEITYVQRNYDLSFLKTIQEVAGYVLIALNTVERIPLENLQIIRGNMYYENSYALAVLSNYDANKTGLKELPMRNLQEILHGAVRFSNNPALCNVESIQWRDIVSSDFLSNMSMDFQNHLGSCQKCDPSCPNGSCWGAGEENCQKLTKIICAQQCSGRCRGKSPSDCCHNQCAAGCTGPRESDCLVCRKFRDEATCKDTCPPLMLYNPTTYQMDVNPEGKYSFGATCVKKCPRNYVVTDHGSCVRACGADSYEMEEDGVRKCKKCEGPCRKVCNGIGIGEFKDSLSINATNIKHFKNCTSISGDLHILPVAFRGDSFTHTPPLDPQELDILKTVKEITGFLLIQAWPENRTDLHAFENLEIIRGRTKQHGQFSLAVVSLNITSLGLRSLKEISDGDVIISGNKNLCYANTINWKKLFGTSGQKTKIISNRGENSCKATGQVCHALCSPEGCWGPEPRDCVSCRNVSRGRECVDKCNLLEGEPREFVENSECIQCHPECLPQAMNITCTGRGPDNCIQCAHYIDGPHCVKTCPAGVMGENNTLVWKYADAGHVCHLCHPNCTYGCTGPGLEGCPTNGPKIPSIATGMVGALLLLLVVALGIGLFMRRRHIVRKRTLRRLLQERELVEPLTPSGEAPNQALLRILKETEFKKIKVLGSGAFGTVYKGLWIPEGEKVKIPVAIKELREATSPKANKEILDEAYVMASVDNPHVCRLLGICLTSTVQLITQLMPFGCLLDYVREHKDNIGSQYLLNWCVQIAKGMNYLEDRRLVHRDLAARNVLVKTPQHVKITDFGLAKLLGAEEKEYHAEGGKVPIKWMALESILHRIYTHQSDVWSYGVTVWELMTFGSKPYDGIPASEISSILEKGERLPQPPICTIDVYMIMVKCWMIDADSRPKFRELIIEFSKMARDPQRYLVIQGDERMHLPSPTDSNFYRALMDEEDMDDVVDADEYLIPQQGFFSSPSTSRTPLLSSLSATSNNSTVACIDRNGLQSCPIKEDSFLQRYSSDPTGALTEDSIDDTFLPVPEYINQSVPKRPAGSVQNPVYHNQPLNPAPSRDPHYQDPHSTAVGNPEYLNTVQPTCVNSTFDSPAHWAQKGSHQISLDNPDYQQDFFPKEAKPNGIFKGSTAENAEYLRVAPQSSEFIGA
MAP3K7, sequence (O43318 whole entry, species assumed): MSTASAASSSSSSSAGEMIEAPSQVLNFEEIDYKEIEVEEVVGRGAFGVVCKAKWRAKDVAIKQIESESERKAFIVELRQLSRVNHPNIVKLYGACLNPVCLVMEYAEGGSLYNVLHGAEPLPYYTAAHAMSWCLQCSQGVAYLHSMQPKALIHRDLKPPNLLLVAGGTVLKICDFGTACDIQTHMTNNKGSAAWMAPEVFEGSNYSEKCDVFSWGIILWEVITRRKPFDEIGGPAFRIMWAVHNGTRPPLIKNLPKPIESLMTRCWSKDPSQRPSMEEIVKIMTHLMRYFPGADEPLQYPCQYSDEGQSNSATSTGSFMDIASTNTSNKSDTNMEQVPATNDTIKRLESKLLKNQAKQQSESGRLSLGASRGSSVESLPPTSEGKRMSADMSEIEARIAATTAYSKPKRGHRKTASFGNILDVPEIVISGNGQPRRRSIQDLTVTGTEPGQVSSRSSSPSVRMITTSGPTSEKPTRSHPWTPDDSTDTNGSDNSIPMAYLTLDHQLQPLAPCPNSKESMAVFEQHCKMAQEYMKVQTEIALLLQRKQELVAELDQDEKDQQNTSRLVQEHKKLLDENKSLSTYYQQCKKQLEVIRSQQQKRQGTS
MAP3K7, sequence (Q15750 whole entry partner, species assumed): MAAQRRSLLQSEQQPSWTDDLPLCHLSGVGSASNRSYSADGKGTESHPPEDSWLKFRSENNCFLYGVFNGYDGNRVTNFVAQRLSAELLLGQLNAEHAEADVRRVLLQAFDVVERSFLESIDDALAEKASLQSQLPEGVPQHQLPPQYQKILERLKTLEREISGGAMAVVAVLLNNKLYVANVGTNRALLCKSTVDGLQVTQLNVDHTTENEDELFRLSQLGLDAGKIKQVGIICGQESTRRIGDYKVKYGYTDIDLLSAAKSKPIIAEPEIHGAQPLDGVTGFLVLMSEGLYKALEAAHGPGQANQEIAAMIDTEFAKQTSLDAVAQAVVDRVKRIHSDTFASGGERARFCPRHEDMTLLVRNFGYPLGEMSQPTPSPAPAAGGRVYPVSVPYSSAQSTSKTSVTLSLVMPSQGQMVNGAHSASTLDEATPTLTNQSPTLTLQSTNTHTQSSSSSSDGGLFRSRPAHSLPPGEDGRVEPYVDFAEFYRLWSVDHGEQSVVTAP
CSF1R, sequence (P07333 20-972, species assumed): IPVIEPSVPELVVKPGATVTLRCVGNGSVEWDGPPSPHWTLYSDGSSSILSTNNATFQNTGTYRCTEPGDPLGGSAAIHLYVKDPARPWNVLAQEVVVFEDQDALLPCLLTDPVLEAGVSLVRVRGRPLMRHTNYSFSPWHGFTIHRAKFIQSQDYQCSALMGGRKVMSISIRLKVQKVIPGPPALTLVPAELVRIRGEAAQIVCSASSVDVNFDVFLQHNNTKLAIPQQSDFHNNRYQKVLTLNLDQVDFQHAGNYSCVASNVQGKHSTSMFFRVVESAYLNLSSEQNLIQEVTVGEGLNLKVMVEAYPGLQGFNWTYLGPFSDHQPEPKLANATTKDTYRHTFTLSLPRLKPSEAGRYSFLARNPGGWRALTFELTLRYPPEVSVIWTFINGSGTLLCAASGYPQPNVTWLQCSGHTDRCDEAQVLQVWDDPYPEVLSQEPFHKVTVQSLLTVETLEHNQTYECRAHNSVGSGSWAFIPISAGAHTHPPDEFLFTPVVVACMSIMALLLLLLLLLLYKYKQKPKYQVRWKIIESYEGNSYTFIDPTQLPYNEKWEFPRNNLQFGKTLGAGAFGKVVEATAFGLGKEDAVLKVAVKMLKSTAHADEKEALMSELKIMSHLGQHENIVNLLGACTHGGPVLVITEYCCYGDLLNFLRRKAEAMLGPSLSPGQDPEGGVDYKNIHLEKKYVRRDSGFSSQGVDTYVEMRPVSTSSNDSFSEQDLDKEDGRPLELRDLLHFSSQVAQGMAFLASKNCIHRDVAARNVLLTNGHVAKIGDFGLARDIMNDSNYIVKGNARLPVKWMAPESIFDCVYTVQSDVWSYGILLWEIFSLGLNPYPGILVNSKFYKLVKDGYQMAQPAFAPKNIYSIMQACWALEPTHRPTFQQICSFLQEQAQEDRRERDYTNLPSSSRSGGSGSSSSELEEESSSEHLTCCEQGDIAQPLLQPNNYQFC
JAK2, sequence (O60674 whole entry, species assumed): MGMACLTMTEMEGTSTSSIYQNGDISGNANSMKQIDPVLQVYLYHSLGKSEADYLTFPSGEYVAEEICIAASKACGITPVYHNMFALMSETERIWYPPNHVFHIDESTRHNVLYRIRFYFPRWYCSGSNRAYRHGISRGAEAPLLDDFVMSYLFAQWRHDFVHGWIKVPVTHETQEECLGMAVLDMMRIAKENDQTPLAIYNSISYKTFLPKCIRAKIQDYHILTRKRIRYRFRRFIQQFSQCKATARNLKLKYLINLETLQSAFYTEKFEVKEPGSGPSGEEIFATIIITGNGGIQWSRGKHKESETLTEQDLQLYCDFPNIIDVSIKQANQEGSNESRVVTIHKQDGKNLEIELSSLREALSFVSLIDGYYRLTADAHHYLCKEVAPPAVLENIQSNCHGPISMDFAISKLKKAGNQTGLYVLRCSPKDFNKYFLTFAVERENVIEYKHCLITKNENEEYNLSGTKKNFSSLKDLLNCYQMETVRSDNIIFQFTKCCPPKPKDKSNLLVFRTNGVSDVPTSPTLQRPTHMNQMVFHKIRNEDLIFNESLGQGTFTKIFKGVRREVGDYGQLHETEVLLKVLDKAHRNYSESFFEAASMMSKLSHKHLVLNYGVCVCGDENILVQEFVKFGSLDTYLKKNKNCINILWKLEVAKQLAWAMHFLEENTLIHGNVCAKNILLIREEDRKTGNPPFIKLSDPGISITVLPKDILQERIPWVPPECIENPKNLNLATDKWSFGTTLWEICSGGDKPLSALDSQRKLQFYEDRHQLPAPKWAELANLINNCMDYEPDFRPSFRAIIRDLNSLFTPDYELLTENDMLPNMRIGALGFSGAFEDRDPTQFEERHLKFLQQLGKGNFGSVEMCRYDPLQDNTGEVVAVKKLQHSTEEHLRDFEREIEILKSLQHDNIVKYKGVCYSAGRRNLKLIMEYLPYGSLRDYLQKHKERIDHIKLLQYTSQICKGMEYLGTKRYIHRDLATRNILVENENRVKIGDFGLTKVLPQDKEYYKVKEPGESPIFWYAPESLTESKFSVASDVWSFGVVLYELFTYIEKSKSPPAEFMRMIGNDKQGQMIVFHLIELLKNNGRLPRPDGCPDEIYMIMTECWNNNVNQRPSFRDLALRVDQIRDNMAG
SRC, sequence (P12931 whole entry, species assumed): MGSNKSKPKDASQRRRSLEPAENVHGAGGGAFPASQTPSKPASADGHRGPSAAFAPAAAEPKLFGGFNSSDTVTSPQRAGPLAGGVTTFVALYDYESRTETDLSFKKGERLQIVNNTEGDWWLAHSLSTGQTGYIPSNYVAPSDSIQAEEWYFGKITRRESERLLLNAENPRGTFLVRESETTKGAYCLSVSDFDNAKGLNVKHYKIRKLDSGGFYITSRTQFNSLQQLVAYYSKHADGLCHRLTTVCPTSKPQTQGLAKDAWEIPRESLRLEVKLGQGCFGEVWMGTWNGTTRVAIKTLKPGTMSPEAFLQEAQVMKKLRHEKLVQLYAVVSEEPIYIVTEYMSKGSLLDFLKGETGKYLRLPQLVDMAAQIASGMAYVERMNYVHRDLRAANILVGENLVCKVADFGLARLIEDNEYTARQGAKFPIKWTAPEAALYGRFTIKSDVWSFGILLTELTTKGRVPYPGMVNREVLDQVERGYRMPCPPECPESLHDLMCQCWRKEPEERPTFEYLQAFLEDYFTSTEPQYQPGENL

COc1ccc2c(Nc3cc(NC(=O)c4cccc(C(C)(C)C#N)c4)ccc3C)ncnc2c1 [AZ304]
IC50 (p38): 0.006 µM
effect on p-p38 (A375 cells): potently inhibited p-p38
tolerability (animal health, body weight) [1]: without obvious toxicity
IC50 (SRC): > 10 µM
IC50 (CSK): 7.05 µM
IC50 (EGFR): > 10 µM
IC50 (IGF1R): > 10 µM
IC50 (FGFR): > 10 µM
IC50 (CSF1R): 0.035 µM
IC50 (JAK2): > 10 µM
IC50 (MAP3K7): 6.4 µM
